The test system of experiment [1] is A375 melanoma cell with BRAF V600E mutation. The experiment can be described thus: A375 cell proliferation assay (counter screen). Type of experiment: cell-based, human. The conditions noted are these: 72 hours treatment, CellTiter96, read-out: anti-proliferation activity A375 BRAF V600E, IC50 ranking. Put shortly:
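A375 cells (BRAF V600E) seeded at 2000 cells/well in DMEM with 10% FBS, settled overnight at 37° C, 5% CO2, then exposed to increasing compound concentrations for 72 hours. Viability read by MTS-type CellTiter96 AQueous reagent, absorbance at 490 nm after 2–4 hours.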

Another experiment has as its target T1, PDGFRα kinase (Homo sapiens, UniProt P16234).
T1 construct: purchased SignalChem
In words: PDGFRα kinase assay (AlphaScreen). Type of experiment: biochemical. The following applies: read-out: Ranking of IC50 values, PDGFRα. Put shortly:
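Recombinant PDGFRα (1.5 ng) phosphorylated biotinylated poly(Glu4:Tyr1) with 10 μM ATP in MOPS pH 7.0 with 10 mM MgCl2, 30 min at 30 °C, stopped with EDTA. Product detected by AlphaScreen; IC50 from serial dilutions run in duplicate.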
In general terms: Bead proximity is the source of the signal in Alpha formats.

The next experiment addresses T2, FLT3 kinase (Homo sapiens, UniProt P36888).
T2 construct: purchased SignalChem
T2 sequence (P36888 27-993): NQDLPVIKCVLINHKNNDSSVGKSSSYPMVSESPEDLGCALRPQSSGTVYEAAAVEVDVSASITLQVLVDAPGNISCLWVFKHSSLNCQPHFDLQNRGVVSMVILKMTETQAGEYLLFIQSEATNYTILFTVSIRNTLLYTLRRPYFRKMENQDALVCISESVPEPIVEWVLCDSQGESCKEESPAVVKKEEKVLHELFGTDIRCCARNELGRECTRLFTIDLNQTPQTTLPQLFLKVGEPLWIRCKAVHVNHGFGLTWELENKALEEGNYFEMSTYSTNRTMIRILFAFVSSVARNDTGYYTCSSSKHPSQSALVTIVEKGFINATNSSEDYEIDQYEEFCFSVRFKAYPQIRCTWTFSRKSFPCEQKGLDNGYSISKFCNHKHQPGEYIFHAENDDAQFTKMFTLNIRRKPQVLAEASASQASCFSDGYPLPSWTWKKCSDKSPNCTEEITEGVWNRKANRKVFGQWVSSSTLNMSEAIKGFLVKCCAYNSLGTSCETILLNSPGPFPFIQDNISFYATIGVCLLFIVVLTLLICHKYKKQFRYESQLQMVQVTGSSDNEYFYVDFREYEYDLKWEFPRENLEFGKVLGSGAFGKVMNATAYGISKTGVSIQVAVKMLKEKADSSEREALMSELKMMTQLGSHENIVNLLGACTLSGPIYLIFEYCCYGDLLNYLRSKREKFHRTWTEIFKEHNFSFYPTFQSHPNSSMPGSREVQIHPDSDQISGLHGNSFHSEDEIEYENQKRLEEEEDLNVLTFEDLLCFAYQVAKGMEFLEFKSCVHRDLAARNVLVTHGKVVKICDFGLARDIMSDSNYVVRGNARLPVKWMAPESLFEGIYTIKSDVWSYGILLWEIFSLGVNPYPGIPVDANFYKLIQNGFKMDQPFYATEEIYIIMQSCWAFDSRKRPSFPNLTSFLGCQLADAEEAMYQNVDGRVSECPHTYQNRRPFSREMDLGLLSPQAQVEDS
In words: FLT3 kinase assay (AlphaScreen). Type of experiment: biochemical. The conditions noted are these: read-out: Ranking of IC50 values, FLT3. Put shortly:
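Recombinant FLT3 (1.5 ng) phosphorylated biotinylated poly(Glu4:Tyr1) with 10 μM ATP in MOPS pH 7.0 buffer containing 10 mM MgCl2, 30 min at 30 °C, stopped with EDTA. Product detected by AlphaScreen; IC50 from duplicate serial dilutions.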

Experiment [2] concerns THP-1 human acute monocytic leukemia cell with NRAS G12D mutation. The experiment can be described thus: THP-1 cell proliferation assay (counter screen). The format is cell-based. The conditions noted are these: THP-1 cells, 72 hours treatment, CellTiter96, read-out: anti-proliferation activity THP-1 NRAS N12D, IC50 ranking. Put shortly: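 THP-1 cells (NRAS G12D, growth independent of class III RTK signaling) seeded at 5000 cells/well overnight, then exposed to increasing compound concentrations for 72 h at 37° C, 5% CO2. Viability read by CellTiter96 AQueous One reagent (2–4 h) as absorbance at 490 nm.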
In general terms: Counterscreens check selectivity or assay interference.

[3] abbreviates: Homo sapiens, A-375, A375 cells.

The source of these data is US12448394B2, “Heterocyclic pyrazole derivatives as type III receptor tyrosine kinase inhibitors” (DEVELOPMENT CENTER FOR BIOTECHNOLOGY, priority 2019, dated 2025).

Molecules are shown by their SMILES. Like-named read-outs stand apart in the source and are kept apart here.

T1 sequence (P16234 24-1089): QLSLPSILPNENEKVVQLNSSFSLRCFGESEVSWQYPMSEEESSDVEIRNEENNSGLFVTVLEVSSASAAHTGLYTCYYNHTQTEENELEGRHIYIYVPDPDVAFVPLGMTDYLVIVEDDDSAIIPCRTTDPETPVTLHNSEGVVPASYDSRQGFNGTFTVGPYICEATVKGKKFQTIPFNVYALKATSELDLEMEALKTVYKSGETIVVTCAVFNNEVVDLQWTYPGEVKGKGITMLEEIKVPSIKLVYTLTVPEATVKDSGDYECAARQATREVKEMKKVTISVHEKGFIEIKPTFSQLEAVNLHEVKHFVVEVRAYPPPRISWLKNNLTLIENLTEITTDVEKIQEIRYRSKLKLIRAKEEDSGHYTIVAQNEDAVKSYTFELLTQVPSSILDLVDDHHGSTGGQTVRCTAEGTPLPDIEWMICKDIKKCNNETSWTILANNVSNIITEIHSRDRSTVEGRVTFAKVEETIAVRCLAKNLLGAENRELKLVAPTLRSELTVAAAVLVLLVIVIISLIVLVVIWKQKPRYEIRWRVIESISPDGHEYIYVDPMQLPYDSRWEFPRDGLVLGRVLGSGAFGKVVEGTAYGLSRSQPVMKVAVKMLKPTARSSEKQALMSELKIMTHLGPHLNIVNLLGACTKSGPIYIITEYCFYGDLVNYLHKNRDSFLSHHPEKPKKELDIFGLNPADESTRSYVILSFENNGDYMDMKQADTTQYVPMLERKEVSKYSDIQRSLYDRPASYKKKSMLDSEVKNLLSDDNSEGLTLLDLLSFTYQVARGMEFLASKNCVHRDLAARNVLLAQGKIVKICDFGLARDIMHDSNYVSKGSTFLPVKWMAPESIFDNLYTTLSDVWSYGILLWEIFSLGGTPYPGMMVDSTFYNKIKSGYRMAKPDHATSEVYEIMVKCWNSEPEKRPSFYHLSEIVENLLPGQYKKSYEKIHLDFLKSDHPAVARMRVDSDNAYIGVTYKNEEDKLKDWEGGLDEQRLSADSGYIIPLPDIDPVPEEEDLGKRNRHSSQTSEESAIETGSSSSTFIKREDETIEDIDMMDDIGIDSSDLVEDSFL

With `COc1cc(CN2CCOCC2)ccc1-c1cc2c(s1)Cc1c(-c3ccc4cnn(C)c4c3)n[nH]c1-2` [Compound 29, 4-(3-methoxy-4-(3-(1-methyl-1H-indazol-6-yl)-1,4-dihydrothieno [2′,3′:4,5]cyclopenta[1,2-c]pyrazol-6-yl)benzyl) morpholine], the IC50 in experiment [1] (setting [3]) is over 10000 nM; on PDGFRα kinase, 10 to 30 nM; at FLT3 kinase, under 1 nM; in experiment [2] (Homo sapiens) it was over 10000 nM.

`Cn1ncc2ccc(-c3n[nH]c4c3Cc3sc(-c5cncc(C(=O)N6CCOCC6)c5)cc3-4)cc21` [Compound 31, (5-(3-(1-methyl-1H-indazol-6-yl)-1,4-dihydrothieno[2′,3′:4,5]cyclopenta[1,2-c]pyrazol-6-yl)pyridin-3-yl) (morpholino)methanone]: the IC50 in experiment [1] (setting [3]) is 1000 to 10000 nM; at PDGFRα kinase it was 100 to 300 nM; on FLT3 kinase, under 1 nM; in experiment [2] (Homo sapiens), 1000 to 10000 nM.

For the compound `Cn1ncc2ccc(-c3n[nH]c4c3Cc3sc(-c5ccc(CN6CCOCC6)cc5F)cc3-4)cc21` [Compound 32, 4-(3-fluoro-4-(3-(1-methyl-1H-indazol-6-yl)-1,4-dihydrothieno [2′,3′:4,5]cyclopenta [1,2-c]pyrazol-6-yl)benzyl)morpholine], the IC50 in experiment [1] (setting [3]) was over 10000 nM; at PDGFRα kinase it was 10 to 30 nM; on FLT3 kinase, under 1 nM; in experiment [2] (Homo sapiens), over 10000 nM.

`Cc1ccc(-c2cc3c(s2)Cc2c(-c4ccc5cnn(C)c5c4)n[nH]c2-3)cn1` [Compound 33, 3-(1-methyl-1H-indazol-6-yl)-6-(6-methylpyridin-3-yl)-1,4-dihydrothieno [2′,3′:4,5]cyclopenta [1,2-c]pyrazole]: the IC50 was over 10000 nM in experiment [1] (A375 cells), 1 to 10 nM on PDGFRα kinase, under 1 nM at FLT3 kinase and over 10000 nM in experiment [2].

Consider `Cn1ncc2ccc(-c3n[nH]c4c3Cc3sc(-c5ccc(C(=O)N6CCCCC6)cc5)cc3-4)cc21` [Compound 34, (4-(3-(1-methyl-1H-indazol-6-yl)-1,4-dihydro-thieno[2′,3′:4,5]cyclopenta [1,2-c]pyrazol-6-yl)phenyl)(piperidin-1-yl) methanone], for which the IC50 in experiment [1] (setting [3]) is over 10000 nM; at PDGFRα kinase, 30 to 100 nM; at FLT3 kinase, 1 to 10 nM; in experiment [2] (Homo sapiens), over 10000 nM.

As to `CC(C)Cn1ncc2ccc(-c3n[nH]c4c3Cc3sc(-c5ccc(CN6CCOCC6)cc5)cc3-4)cc21` [Compound 35, 4-(4-(3-(1-isobutyl-1H-indazol-6-yl)-1,4-dihydro-thieno[2′,3′:4,5]cyclopenta [1,2-c]pyrazol-6-yl)benzyl)morpholine], the IC50 was over 10000 nM in experiment [1] (setting [3]), 30 to 100 nM at PDGFRα kinase, 1 to 10 nM at FLT3 kinase and 1000 to 10000 nM in experiment [2] (Homo sapiens).

In the case of `Cn1ncc2ccc(-c3n[nH]c4c3Cc3sc(-c5cccc(C(=O)N6CCOCC6)c5)cc3-4)cc21` [Compound 37, (3-(3-(1-methyl-1H-indazol-6-yl)-1,4-dihydro-thieno[2′,3′:4,5]cyclopenta [1,2-c]pyrazol-6-yl)phenyl)(morpholino) methanone], the IC50 in experiment [1] (setting [3]) is over 10000 nM; on PDGFRα kinase, 1 to 10 nM; at FLT3 kinase, 1 to 10 nM; in experiment [2] (Homo sapiens) it was over 10000 nM.

`Cn1ncc2ccc(-c3n[nH]c4c3Cc3sc(-c5ccc(C(=O)N6CCCC6)cc5)cc3-4)cc21` [Compound 38, (4-(3-(1-methyl-1H-indazol-6-yl)-1,4-dihydro-thieno[2′,3′:4,5]cyclopenta [1,2-c]pyrazol-6-yl)phenyl)(pyrrolidin-1-yl) methanone]: the IC50 in experiment [1] (setting [3]) was over 10000 nM; at PDGFRα kinase, 10 to 30 nM; at FLT3 kinase, 1 to 10 nM; in experiment [2] (Homo sapiens), over 10000 nM.

Regarding `Cn1ncc2ccc(-c3n[nH]c4c3Cc3sc(-c5ccc(CN6CCSCC6)cc5)cc3-4)cc21` [Compound 39, 3-(1-methyl-1H-indazol-6-yl)-6-(4-(thiomorpho-linomethyl)phenyl)-1,4-dihydrothieno[2′,3′:4,5] cyclopenta[1,2-c]pyrazole], the IC50 is over 10000 nM in experiment [1] (setting [3]), 10 to 30 nM at PDGFRα kinase, 1 to 10 nM at FLT3 kinase and over 10000 nM in experiment [2] (Homo sapiens).

`Cn1ncc2ccc(-c3n[nH]c4c3Cc3sc(-c5cnc(C(=O)N6CCOCC6)nc5)cc3-4)cc21` [Compound 41, (5-(3-(1-methyl-1H-indazol-6-yl)-1,4-dihydrothieno[2′,3′:4,5]cyclopenta[1,2-c]pyrazol-6-yl)pyrimidin-2-yl) (morpholino)methanone]: the IC50 in experiment [1] (setting [3]) is over 10000 nM; on PDGFRα kinase, 10 to 30 nM; at FLT3 kinase, under 1 nM; in experiment [2] (Homo sapiens), over 10000 nM.

`CC(C)n1ncc2ccc(-c3n[nH]c4c3Cc3sc(-c5ccc(CN6CCOCC6)cc5)cc3-4)cc21` [Compound 42, 4-(4-(3-(1-isopropyl-1H-indazol-6-yl)-1,4-dihydro-thieno[2′,3′:4,5]cyclopenta [1,2-c]pyrazol-6-yl)benzyl)morpholine]: the IC50 in experiment [1] (setting [3]) was over 10000 nM; at PDGFRα kinase it was 10 to 30 nM; on FLT3 kinase, under 1 nM; in experiment [2] (Homo sapiens), over 10000 nM.

Turning to `COc1cc(-c2cc3c(s2)Cc2c(-c4ccc5cnn(C)c5c4)n[nH]c2-3)ccc1C(=O)N1CCOCC1` [Compound 43, (2-methoxy-4-(3-(1-methyl-1H-indazol-6-yl)-1,4-dihydrothieno [2′,3′:4,5]cyclopenta [1,2-c]pyrazol-6-yl)phenyl)(morpholino) methanone], the IC50 is over 10000 nM in experiment [1] (setting [3]), 1 to 10 nM at PDGFRα kinase, 1 to 10 nM on FLT3 kinase and over 10000 nM in experiment [2] (Homo sapiens).

For `Cn1ncc2ccc(-c3n[nH]c4c3Cc3sc(-c5ccc(C(=O)N6CCOCC6)c(F)c5)cc3-4)cc21` [Compound 44, (2-fluoro-4-(3-(1-methyl-1H-indazol-6-yl)-1,4-dihydrothieno[2′,3′:4,5]cyclopenta[1,2-c]pyrazol-6-yl)phenyl)(morpholino) methanone], the IC50 is over 10000 nM in experiment [1] (setting [3]), 1 to 10 nM at PDGFRα kinase, under 1 nM at FLT3 kinase and over 10000 nM in experiment [2] (Homo sapiens).

For `Cn1ncc2ccc(-c3n[nH]c4c3Cc3sc(-c5cnc(N)nc5)cc3-4)cc21` [Compound 45, 5-(3-(1-methyl-1H-indazol-6-yl)-1,4-dihydrothieno [2′,3′:4,5]cyclopenta[l,2-c]pyrazol-6-yl)pyrimidin-2-amine], the IC50 was over 10000 nM in experiment [1] (setting [3]), 10 to 30 nM at PDGFRα kinase, under 1 nM on FLT3 kinase and over 10000 nM in experiment [2] (Homo sapiens).

Take `Cn1cc(-c2cc3c(s2)Cc2c(-c4ccc5cnn(C)c5c4)n[nH]c2-3)cc1C(=O)N1CCOCC1` [Compound 46, (1-methyl-4-(3-(1-methyl-1H-indazol-6-yl)-1,4-dihydrothieno[2′,3′:4,5]cyclopenta[1,2-c]pyrazol-6-yl)-1H-pyrrol-2-yl) (morpholino)methanone]: the IC50 in experiment [1] (setting [3]) is over 10000 nM; at PDGFRα kinase it was 1 to 10 nM; at FLT3 kinase, under 1 nM; in experiment [2] (Homo sapiens), over 10000 nM.

In the case of `Cn1ncc2ccc(-c3n[nH]c4c3Cc3sc(-c5ccc(S(=O)(=O)N6CCOCC6)cc5)cc3-4)cc21` [Compound 47, 4-((4-(3-(1-methyl-1H-indazol-6-yl)-1,4-dihydro-thieno[2′,3′:4,5]cyclopenta [1,2-c]pyrazol-6-yl)phenyl)sulfonyl) morpholine], the IC50 in experiment [1] (setting [3]) was over 10000 nM; at PDGFRα kinase, 1 to 10 nM; at FLT3 kinase, under 1 nM; in experiment [2] (Homo sapiens), over 10000 nM.
